{"source": "patent US5608075A", "about": "(priority 1995, dated 1997)", "key": {"[1]": {"system": "blood pressure in conscious dogs", "assay": "Hypotensive effects in conscious dogs before and after furosemide", "assay_type": "in vivo, dog", "conditions": "cumulative iv 0.3 to 3 mg/kg", "protocol": "(§1) The hypotensive effects of 2-butyl-4-chloro-1-[2'-(1H-tetrazol-5-yl)biphenyl-4-yl)methyl]-5-hydroxymethylimidazole sodium salt were compared before and after furosemide administration to conscious dogs. […] Plasma renin activity (PRA) in these animals was 1.5±0.5 ng AI/ml/hr. Four days later, furosemide was given to three of these dogs at 10 mg/kg im at 18 and 2 hours before the experiment and increased PRA to 19.9±7.2 ng AI/ml/hr. […] Thus a combined therapy of these two classes of drugs will be likely to increase the response rate to therapy among hypertensive patients."}, "pressor response to AII": {"system": "pressor response to AII", "assay": "Inhibition of the pressor response to AII in conscious dogs", "assay_type": "in vivo, dog", "protocol": "as §1"}, "[2]": {"assay": "Solubility studies in nonaqueous solvents at 25° C.", "assay_type": "physicochemical", "conditions": "overnight equilibration; for solubility: organic solvent or mixture, isopropyl acetate"}, "[3]": {"assay_type": "physicochemical", "conditions": "25° C., overnight equilibration", "from_the_text": "From these facts it was concluded that the minor endotherm corresponds to an enantiotropic polymorphic transition. The major endotherm is the melting of the high-temperature form. The low-temperature stable polymorph (up to the transition temperature) is designated Form I and the high-temperature stable polymorph is designated Form II. […] Form I is the solid modification consistently obtained by solvent isolation. This was confirmed by recrystallizing the drug substance under varying conditions and analyzing by XRPD. Form II has been obtained only from DSC or related high temperature experiments."}, "[4]": {"system": "blood pressure in renal hypertensive rats", "assay": "Antihypertensive effects in renal hypertensive rats (left renal artery ligation)", "assay_type": "in vivo, rat", "protocol": "This procedure increases blood pressure by increasing renin production with consequent elevation of AII levels. Compounds are administered orally at 100 mg/kg and/or intravenously via a cannula in the jugular vein at 10 mg/kg. Arterial blood pressure is continuously measured directly through a carotid artery cannula and recorded using a pressure transducer and a polygraph. Blood pressure levels after treatment are compared to pretreatment levels to determine the antihypertensive effects of the compounds (See Table 6)."}, "AT1 receptor": {"system": "AT1 receptor", "conditions": "cited from earlier work"}, "[5]": {"system": "renal vasoconstrictor effect of indomethacin and meclofenamate", "conditions": "dogs; cited from earlier work"}, "arterial pressure": {"system": "arterial pressure", "conditions": "cited from earlier work"}, "AII": {"system": "AII", "conditions": "cited from earlier work"}, "[6]": {"system": "renal vasoconstrictor effect of indomethacin", "conditions": "dogs with non-hypotensive hemorrhage; cited from earlier work"}, "plasma renin": {"system": "plasma renin", "assay": "Plasma renin activity (PRA) in conscious dogs", "assay_type": "in vivo, dog", "conditions": "furosemide 10 mg/kg im at 18 and 2 hours before the experiment, three dogs; PRA before furosemide 1.5±0.5", "protocol": "as §1"}}, "note": "Where a name gives a salt, the structure may show the parent alone.", "data": [{"smiles": "CCCCc1nc(Cl)c(CO)n1Cc1ccc(-c2ccccc2-c2nn[nH]n2)cc1", "note": "[2-butyl-4-chloro-1-[2'-(1H-tetrazol-5-yl)biphenyl-4-yl)methyl]-5-hydroxymethylimidazole sodium salt]", "values": [{"measurement": "decrease in blood pressure after furosemide", "setting": "[1]; furosemide-treated dogs", "result": "significant decrease in blood pressure in a dose-dependent manner"}, {"measurement": "blood pressure lowering in normotensive conscious dogs", "setting": "[1]; n=4, before furosemide", "result": "did not lower blood pressure"}, {"measurement": "inhibition of the pressor response to AII", "setting": "pressor response to AII; cumulative iv 0.3 to 3 mg/kg, AII 0.1 μg/kg iv, 10 min post dose, before furosemide", "result": "effective in inhibiting the pressor response to AII"}, {"measurement": "inhibition of the pressor response to AII after furosemide", "setting": "pressor response to AII; cumulative iv, furosemide-treated dogs", "result": "inhibited the pressor response to AII at the two higher doses"}]}, {"smiles": "CCCCc1nc(Cl)c(CO)n1Cc1ccc(-c2ccccc2-c2nnn[nH]2)cc1.[K]", "note": "[Form I, 2-n-butyl-4-chloro-1-[(2'-(tetrazol-5-yl)-1,1'-biphenyl-4-yl)-methyl]-1H-imidazole-5-methanol potassium salt]", "values": [{"measurement": "solubility in ethyl acetate", "setting": "[2]; ethyl acetate", "result": "~ 0.3 mg/g"}, {"measurement": "solubility in isopropanol", "setting": "[2]; isopropanol", "result": "~ 35 mg/g"}, {"measurement": "solubility in methyl ethyl ketone", "setting": "[2]; methyl ethyl ketone", "result": "~ 1 mg/g"}, {"measurement": "solubility", "setting": "[2]", "result": 18, "unit": "µg/mL"}, {"measurement": "polymorph conversion in isopropyl acetate", "setting": "[3]", "result": "no conversion of either Form was observed"}]}, {"smiles": "CCCCc1nc(Cl)c(CO)n1Cc1ccc(-c2ccccc2-c2nn[nH]n2)cc1", "note": "[Form II, 2-n-butyl-4-chloro-1-[(2'-(tetrazol-5-yl)-1,1'-biphenyl]-1H-imidazole-5-methanolpotassium salt]", "values": [{"measurement": "solubility", "setting": "[2]", "result": 41, "unit": "µg/mL"}, {"measurement": "polymorph conversion in isopropanol, methyl ethyl ketone and ethyl acetate", "setting": "[3]", "result": "converts to Form I after overnight equilibration"}, {"measurement": "polymorph conversion in isopropyl acetate", "setting": "[3]", "result": "no conversion of either Form was observed"}]}, {"smiles": "CCCCc1nc(Cl)c(CO)n1Cc1ccc(-c2ccccc2-c2nn[nH]n2)cc1", "note": "[Losartan, 2-butyl-4-chloro-1-[(2'-tetrazol-5-yl)-biphenyl-4-yl]methyl]-5-(hydroxymethyl)imidazole potassium salt]", "values": [{"measurement": "Antihypertensive Effects in Renal Hypertensive Rats, Intravenous Activity", "setting": "[4]; intravenous, 10 mg/kg", "result": "+ (Significant decrease in blood pressure at 10 mg/kg or less)"}, {"measurement": "Antihypertensive Effects in Renal Hypertensive Rats, Oral Activity", "setting": "[4]; oral, 100 mg/kg", "result": "+ (Significant decrease in blood pressure at 100 mg/kg or less)"}, {"measurement": "AII antagonist activity, oral", "setting": "AT1 receptor", "result": "orally active AII antagonists"}]}, {"smiles": "CNCC(=O)N[C@@H](CCCN=C(N)N)C(=O)N[C@H](C(=O)N[C@@H](Cc1ccc(O)cc1)C(=O)N[C@H](C(=O)N[C@@H](Cc1cnc[nH]1)C(=O)N1CCC[C@H]1C(=O)N[C@@H](C)C(=O)O)C(C)C)C(C)C", "note": "[Saralasin, [Sar^1, Ala^8] AII]", "values": [{"measurement": "inhibition of renal vasoconstrictor effect of indomethacin and meclofenamate", "setting": "[5]", "result": "inhibit the renal vasoconstrictor effect of indomethacin and meclofenamate in dogs"}, {"measurement": "oral effectiveness", "setting": "arterial pressure; oral doses", "result": "oral doses being ineffective"}, {"measurement": "duration of pharmacological effects", "setting": "arterial pressure; parenteral administration", "result": "relatively short-lasting"}, {"measurement": "lowering of arterial pressure", "setting": "arterial pressure; when the (elevated) pressure is dependent on circulating AII", "result": "lower arterial pressure in mammals and man"}, {"measurement": "pressor effects (agonistic character)", "setting": "arterial pressure; when the pressure is not sustained by AII", "result": "generally elicits pressor effects when the pressure is not sustained by AII"}, {"measurement": "block of effects of AII on the blood pressure", "setting": "AII; pithed rats", "result": "blocks the effects of AII on the blood pressure of pithed rats"}, {"measurement": "competitive antagonism of the actions of AII", "setting": "AII; rat, in vivo", "result": "one of the most potent competitive antagonists of the actions of AII"}]}, {"smiles": "C[C@H](CS)C(=O)N1CCC[C@H]1C(=O)O", "note": "[captopril]", "values": [{"measurement": "reversal of renal vasoconstrictor effect of indomethacin", "setting": "[6]", "result": "reverse the renal vasoconstrictor effect of indomethacin in dogs"}]}, {"smiles": "NS(=O)(=O)c1cc(C(=O)O)c(NCc2ccco2)cc1Cl", "note": "[furosemide]", "values": [{"measurement": "plasma renin activity (PRA) after furosemide", "setting": "plasma renin", "result": "19.9±7.2", "unit": "ng AI/ml/hr"}]}]}
